Measured values: patent US20180177749A1, “USE OF CYP EXPRESSION TO DIRECT THERAPEUTIC INTERVENTION IN CANCER” (REGENTS OF THE UNIVERSITY OF MINNESOTA, priority 2016, published 2018)
Like-named read-outs stand apart in the source and are kept apart here.

Experiments:
CYP3A4 (Δ3-22) = CYP3A4 (Δ3-22) (Homo sapiens, UniProt P08684); assay: Spectral binding to soluble truncated CYP3A4; conditions: soluble truncated CYP3A4Δ3-22; read-out: spectral dissociation constant (Ks)
CYP2C8 = biological target: T1, CYP2C8 (Homo sapiens, UniProt P10632); assay: Recombinant microsomal CYP-mediated EET biosynthesis (CYP2C8 Supersomes); format: biochemical; design: host or cells: insect cells (microsomes)
T1 sequence (P10632 1-490): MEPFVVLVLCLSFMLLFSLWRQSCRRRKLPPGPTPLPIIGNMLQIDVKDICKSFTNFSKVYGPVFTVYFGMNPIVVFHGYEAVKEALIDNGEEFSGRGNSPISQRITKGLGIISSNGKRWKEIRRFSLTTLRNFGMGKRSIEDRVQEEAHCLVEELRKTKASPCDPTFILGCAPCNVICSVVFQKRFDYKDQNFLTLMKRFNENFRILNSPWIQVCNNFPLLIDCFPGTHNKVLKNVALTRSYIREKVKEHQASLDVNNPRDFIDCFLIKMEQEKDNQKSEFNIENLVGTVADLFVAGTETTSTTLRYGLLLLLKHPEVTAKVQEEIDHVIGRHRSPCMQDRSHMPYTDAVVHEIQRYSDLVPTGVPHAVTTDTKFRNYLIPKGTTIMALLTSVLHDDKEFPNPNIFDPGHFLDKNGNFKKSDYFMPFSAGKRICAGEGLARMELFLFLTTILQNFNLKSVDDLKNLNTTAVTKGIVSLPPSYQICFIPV
Protocol: Samples were submitted to liquid chromatography-electrospray ionization/multiple reaction monitoring/mass spectrometry (LC-ESI/MRM/MS) analysis in a Thermo Electron Quantum Discovery Max triple quadrupole mass spectrometer (Thermo Finnigan, San Jose, Calif.) coupled with an Agilent 1100 HPLC (Santa Clara, Calif.), using argon as the collision gas. Negative ion monitoring was performed at the following diagnostic product ions: 319 m/z→155 m/z for 8,9-EET; 319 m/z→179 m/z for 11,12-EET; 319 m/z→219 m/z for 14,15-EET; 339 m/z→163 m/z for 8,9-[13C20]EET; 339 m/z→233 m/z for 11,12-[13C20]EET; and 339 m/z→259 m/z for 14,15-[^13C20]EET. Base-line resolution of EET regioisomers was achieved on a Phenomenex Luna C18 (2) reverse phase capillary column (250×0.5 mm, 5-μm particles) using the following mobile phase combinations: isocratic 5% B for 5 min, gradient 5-70% B for 5 min, hold at 70% for 30 min and then 95% for 10 min; A: 0.01% acetic acid in water, B: 0.01% acetic acid in acetonitrile; […] flow rate. A standard curve was obtained by linear regression of the peak area ratio of authentic EET regioisomers against internal standards. The amount of EETs in samples was calculated according to the standard curve. The (±)-5,6-EET regioisomer was not measured because it undergoes rapid internal degradation.
CYP3A4 or 2C8 Supersomes™ (BD Biosciences) were incubated at 37° C. for 30 min in the presence of AA (5 μM) in […] Tris-HCl, pH 7.4, containing 1 mm EDTA and 1 mm NADPH. Reactions were terminated by adding methylene chloride (0.5 ml). Samples were centrifuged at 3,000 rpm for 10 min and 150 μl of the organic phases were evaporated under nitrogen. […] Reaction extracts were chromatographed under the conditions described above, and ions of 319 m/z, corresponding to AA monooxygenation products, were selectively monitored in negative mode. Concentrations of EETs generated by CYP Supersomes™ were calculated by linear regression against standard curve generated with EET standards.

[1] = MTD for daily dosing by two-fold dose escalation in tumor-bearing mice; format: in vivo
MDA-MB-435/LCC6 = assay: Cell growth inhibition, MDA-MB-435/LCC6; format: cell-based; conditions: MDA-MB-435/LCC6, Triple negative
MCF-7 cells [2] = assay: Western blot of signaling proteins, MCF-7; format: cell-based, human
Protocol: RIPA extracts of cells were prepared as described previously, in the presence of protease inhibitors and phosphatase inhibitors. Protein concentrations were determined by the micro-bicinchoninic acid (BCA) method, and 30 μg of protein was used for each lane of the SDS-polyacrylamide gel Western blot. Relative protein expression was estimated using GAPDH or β-actin as an internal standard.

MDA-MB-231 = assay: MTT cell proliferation assay, MDA-MB-231; format: cell-based, human
Protocol: The human breast cancer cell lines MCF-7, T47D, and MDA-MB-231 described above were grown in Minimal Essential Medium (MCF-7), RPMI 1640 with insulin (0.2 U/mL) and 1 mM Na pyruvate (T47D) or DMEM containing 10% fetal bovine serum (FBS) (MDA-MB-231), which was defined as complete medium (CM). Cells were grown at 37° C. in a 5% CO2 incubator. […] MTT was then added (5 mg/ml), and after 2 h of incubation, the plates were centrifuged. The supernatant was removed; DMSO was added, and the absorbance was read at 540 nm with a BioTek 96-well plate reader.

MCF-7 cells [3] = assay: Measurement of OCR and ECAR (extracellular flux), MCF-7; format: cell-based, human
Protocol: Cells were maintained in growth medium consisting of 10% FBS at 37° C. with 5% CO2 and seeded at 100,000 cells per well in XF24-well cell culture microplates (Seahorse Bioscience, North Billirica, Mass.). Concentrated stocks of HBB were prepared in DMSO. HBB was diluted to 10× working concentration in XF assay medium (a non-buffered medium including 2 mM L-glutamine but no sodium bicarbonate (buffering agent), glucose, or sodium pyruvate). Assays were performed in the XF Extracellular Flux Analyzer (Seahorse Bioscience that measures uptake and excretion of metabolic end products in real time). Oxygen consumption rate (OCR) and extracellular acidification rate (ECAR) were measured using an XF Assay Kit. OCR is reported in pmoles/minute and ECAR in mpH/minute. Before analysis, the cells were switched from culture medium to XF assay medium. After baseline measurements, 75 μl of HBB prepared in assay medium was injected into each well to reach final working concentrations. After addition of HBB, OCR and ECAR were measured at 18-minute intervals. […] There were 6 replicates for the studies of the 3-18 and 4-14 cell lines.

[4] = t-AUCB 2.5, 5 μM, metformin 2.5, 5 mM, HBB 20, 40 μM, rotenone 1 μM

Chain of CYP3A4 (Δ3-22) (P08684 with tags, fused parts or gaps): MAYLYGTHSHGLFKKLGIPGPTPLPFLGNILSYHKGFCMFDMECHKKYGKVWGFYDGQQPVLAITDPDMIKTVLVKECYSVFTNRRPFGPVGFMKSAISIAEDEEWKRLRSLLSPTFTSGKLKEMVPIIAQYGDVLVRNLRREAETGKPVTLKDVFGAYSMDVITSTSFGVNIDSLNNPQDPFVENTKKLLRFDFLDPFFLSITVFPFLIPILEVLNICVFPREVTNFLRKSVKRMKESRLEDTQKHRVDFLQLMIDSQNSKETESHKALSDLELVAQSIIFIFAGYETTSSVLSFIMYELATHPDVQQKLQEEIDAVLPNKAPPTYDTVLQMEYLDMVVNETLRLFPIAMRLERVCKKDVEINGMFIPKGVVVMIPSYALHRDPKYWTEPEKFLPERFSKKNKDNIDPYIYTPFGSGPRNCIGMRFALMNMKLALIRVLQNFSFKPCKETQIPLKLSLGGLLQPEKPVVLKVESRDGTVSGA

CCCCCCNC(=N)NC(=N)NCc1ccccc1 [HBB, N1-hexyl-N5-benzyl-biguanide]
Kd (CYP3A4 (Δ3-22)): 164 µM | IC50 (CYP2C8; read-out: IC50, CYP2C8 synthesis of (±)-8,9-EET): 65 µM | IC50 (CYP2C8; read-out: IC50, CYP2C8 synthesis of (±)-11,12-EET): 50 µM | IC50 (CYP2C8; read-out: IC50, CYP2C8 synthesis of (±)-14,15-EET): 45 µM | lethality ([1]; 8 mg/kg/day ip, cohorts of 5 tumor-bearing mice): animal deaths within 3 days | MTD ([1]; athymic nude (Foxn1nu/Foxn1nu), mouse, in vivo, ip): 4 mg/kg/day | IC50 (MDA-MB-435/LCC6): 12.5 µM | dosing for signaling effects relative to metformin (lower) (MCF-7 cells [2]): 250 fold | mTOR, S6 kinase and ERK (MCF-7 cells [2]; 20 μM, by 24 hours, presence or absence of serum): Significant inhibition | onset of AMPK activation (phosphorylation) (MCF-7 cells [2]; HBB 20 μM, metformin 5 mM): within 30 minutes to 1 hour | IC50 (MDA-MB-231; Homo sapiens, MDA-MB-231, Triple negative): 20.5 µM | growth inhibition abrogated by concurrent (±)-14,15-EET (MDA-MB-231; MDA-MB-231, (±)-14,15-EET 1 μM, 24 hours): no dependence on (±)-14,15-EET | potency as inhibitor of OCR relative to metformin (MCF-7 cells [3]): more than 250 fold | extracellular acidification rate (ECAR) (MCF-7 cells [3]; [4]): significant inhibition of ECAR without recovery | oxygen consumption rate (OCR) (MCF-7 cells [3]; [4]): dose-dependent reduction of OCR
